Structures are written as SMILES. Like-named read-outs stand apart in the source and are kept apart here. Some results are limits rather than exact numbers.

One assay deals with T1, mouse Mcl1 (Mus musculus, UniProt P97287).
T1 construct: made in house; host or cells: E. coli BL21(DE3)-T1R
Nature of the assay: TR-FRET binding assay, MCL-1 orthologs. How it is done: (§1) Binding affinities for MCL-1, BCL-2, BCL-XL, BCL-W, and BCL2-A1 were determined using a time-resolved fluorescence resonance energy transfer (FRET) assay. Test compounds were serially diluted in DMSO starting at […] (20× starting concentration; 100% DMSO followed by a 1:10 dilution of the compound DMSO plate into assay buffer); 10 µL of the compound in 10% DMSO was then transferred into a 384-well plate (low-volume Corning #3673 assay plate). Glutathione S-transferase (GST)-tagged recombinant BCL-2, BCL-XL, MCL-1, BCL-W, or BCL2-A1 protein (1 nM each) were mixed with 100 nM Oregon Green™-labeled f-BAK peptide probe and 1 nM Tb-labeled anti-GST antibody were mixed. Then 10 µL of a 2× protein/probe/antibody mix was added to each well of increasing concentrations of test compound in assay buffer (20 mM potassium phosphate, pH 7.6, 50 mM NaCl, 1 mM ethylenediaminetetraacetic acid disodium salt dihydrate, 0.05% pluronic acid F-68, 1 mM DL-dithiothreitol) at room temperature (final concentrations listed in Supplementary Table S2). The samples were then mixed on a shaker for 1 min and incubated for an additional 1 h at room temperature. For each assay plate, a probe/antibody and protein/antibody/probe mixture were included as a negative and a positive control, respectively. Fluorescence was measured on the EnVision™ (Perkin Elmer) using a 340/35-nm excitation filter and 520/525- (F-Bak) and 495/510-nm (Tb-labeled anti-glutathione S-transferase [GST] antibody) emission filters. Dissociation constants were determined using Wang’s equation[35]. The time-resolved FRET assay can be performed in the presence of varying concentrations of human serum to determine apparent half-maximal inhibitory concentration after serum protein binding.
Supplementary Table S10: MCL-1 ortholog information and ABBV-467 affinity across species […]
Mouse Mus musculus Rattus Canis lupus Macaca sp.
Protein name Mcl1 Mcl1 M CL1 M CL1 […]
Amino acid sequence homology determined with NCBI BLAST (http://blast.ncbi.nlm.nih.gov). […]

In another assay the target is human MCL-1 (Homo sapiens, UniProt Q07820). The assay can be described thus: Time-resolved FRET binding assay. The protocol: as §1, with “Test” for “Binding affinities for MCL-1, BCL-2, BCL-XL, BCL-W, and BCL2-A1 were determined using a time-resolved fluorescence resonance energy transfer (FRET) assay. Test”
Sequence of human MCL-1 (Q07820 whole entry): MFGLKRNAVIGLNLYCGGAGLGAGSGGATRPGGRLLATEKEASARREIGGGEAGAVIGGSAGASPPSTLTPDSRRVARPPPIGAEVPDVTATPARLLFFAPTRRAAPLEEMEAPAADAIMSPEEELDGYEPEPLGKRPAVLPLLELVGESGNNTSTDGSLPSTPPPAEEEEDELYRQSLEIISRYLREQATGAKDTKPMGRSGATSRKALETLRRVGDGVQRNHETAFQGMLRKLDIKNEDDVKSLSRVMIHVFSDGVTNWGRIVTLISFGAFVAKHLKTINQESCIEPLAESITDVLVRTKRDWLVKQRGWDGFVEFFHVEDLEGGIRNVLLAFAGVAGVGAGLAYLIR

T1 sequence (P97287 152-308): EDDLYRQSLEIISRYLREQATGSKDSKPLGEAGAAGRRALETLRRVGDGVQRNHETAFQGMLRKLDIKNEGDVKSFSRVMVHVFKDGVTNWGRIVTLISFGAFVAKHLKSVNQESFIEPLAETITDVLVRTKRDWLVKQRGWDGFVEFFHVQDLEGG

On to `Cc1c(Cl)c2c(Cl)c(C)c1-c1c(-c3ccc(F)cc3)sc3ncnc(c13)O[C@@H](C(=O)O)Cc1cc(ccc1OCc1ccnc(-c3ccc(OC[C@H]4COCCO4)cc3)n1)OC[C@@H](CN1CCN(C)CC1)O2` [ABBV-467], for which the “affinity for the murine mcl1” value on mouse Mcl1 was “substantially reduced affinity”. Further, the Ki at human MCL-1 (TR-FRET, arithmetic mean, read-out: Arithmetic Mean Ki, MCL1) was less than 0.01 nM; on human MCL-1 (TR-FRET, individual determinations, read-out: Individual Ki, MCL1), less than 0.01 nM; on human MCL-1 (read-out: TR-FRET, Ki, nM MCL-1), less than 0.01 nM.

The values are drawn from paper PMC10600239, “Selective MCL-1 inhibitor ABBV-467 is efficacious in tumor models but is associated with cardiac troponin increases in patients” (Communications Medicine, 2023).
